Each molecule was assayed against T1, human orexin-2 receptor (OX2R) (Homo sapiens, UniProt O43614) (assay: Human OX2R IP1 assay). Details: T-Rex CHO cells stably overexpressing human OX2R; IP1 accumulation; 1 hr at 37 degrees C; mean EC50.
T1 construct: expressed in transfected cells
T1 sequence (O43614 1-444): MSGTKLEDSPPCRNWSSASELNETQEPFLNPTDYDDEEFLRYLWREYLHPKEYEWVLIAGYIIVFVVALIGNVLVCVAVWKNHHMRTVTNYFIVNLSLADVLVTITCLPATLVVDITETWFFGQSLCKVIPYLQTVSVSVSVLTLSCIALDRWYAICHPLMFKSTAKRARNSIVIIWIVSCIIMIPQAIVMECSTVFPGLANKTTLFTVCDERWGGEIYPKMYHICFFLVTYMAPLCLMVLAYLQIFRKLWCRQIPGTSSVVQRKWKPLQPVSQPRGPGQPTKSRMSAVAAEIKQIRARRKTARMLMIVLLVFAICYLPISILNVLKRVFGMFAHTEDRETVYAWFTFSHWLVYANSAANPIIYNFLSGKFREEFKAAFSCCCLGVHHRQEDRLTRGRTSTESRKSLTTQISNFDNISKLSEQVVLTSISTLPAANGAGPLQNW
Type: cell-based
Procedure: T-Rex CHO cells stably overexpressing the human orexin-2 receptor (OX2R) were induced overnight with 1 μg/mL of doxycycline in a T225 flask. 24 hours post induction, cells were lifted with accutase and plated into a 384-well proxy plate at 30,000 cells/well. Cells were then treated with different test compounds in 1× stimulation buffer containing 10 mM Hepes, 1 mM CaCl2), 0.5 mM MgCl2, 4.2 mM KCl, 146 mM NaCl, 5.5 mM glucose, and 50 mM LiCl, pH 7.4, for 1 hr at 37 degrees C. Following incubation, the reaction was terminated by the addition of detection mix, which is composed of IP1-d2 and anti-IP1-cryptate diluted in lysis buffer as well as 1× stimulation buffer. The plates were allowed to incubate for 1 hour at room temperature and were then read in the EnVision® multimode plate reader, measuring inositol phosphate levels.
Cisbio IP1 is a cell-based functional assay quantifying the accumulation of inositol monophosphate (IP), a metabolite released as a result of orexin 2 receptor activation through the phospholipase C-Gq signaling pathway. This is a competitive immunoassay in which the IP1 produced by the cells upon receptor activation competes with the IP1 analog coupled to the d2 fluorophore (acceptor) for binding to an anti-IP1 monoclonal antibody labeled with Eu cryptate (donor). The measured HTRF-FRET based signal is inversely proportional to the IP1 concentration produced.
The EC50 values reported in Table 2 were obtained according to the human OX2R IP1 assay described above. Data are the mean EC50 values S.E.M. Reference Compound A is methyl (2R,3S)-3-((methylsulfonyl)amino)-2-(((cis-4-phenylcyclohexyl)oxy)methyl)-piperidine-1-carboxylate (Example 5 of PCT publication No. WO2017/135306). Reference Compound B is N-((2S,3S)-1-(2-hydroxy-2-methylpropanoyl)-2-((2,3′,5′-trifluorobiphenyl-3-yl)methyl)pyrrolidin-3-yl)methanesulfonamide (Example 483 of PCT publication No. WO2019/027058).
In the case of `O=C1COc2ccccc2[C@H]2CC[C@H](CC2)OC[C@H]2[C@@H](NS(=O)(=O)CC3CCC3)CCCN12` (stereo in doubt) [Compound 43], the EC50 is reported as 10 to 1000 nM.
Molecule `CC(C)S(=O)(=O)N[C@H]1CCCN2C(=O)COc3ccccc3[C@H]3CC[C@H](CC3)OC[C@@H]12` (stereo in doubt) [Compound 3] has an EC50 of less than 10 nM.
`Cc1cccc2c1OCCN1CCC[C@H](NS(C)(=O)=O)[C@@H]1CO[C@H]1CC[C@@H]2CC1` (stereo in doubt) [Compound 49] gave an EC50 greater than 1000 nM.
With `Cc1cccc2c1OCC(=O)N1CCC[C@H](NS(C)(=O)=O)[C@@H]1CO[C@H]1CC[C@@H]2CC1` (stereo in doubt) [Compound 37] the EC50 was less than 10 nM.
`O=C1COc2ncccc2[C@H]2CC[C@H](CC2)OC[C@H]2[C@@H](NS(=O)(=O)C3CC3)CCCN12` (stereo in doubt) [Compound 14] gave an EC50 of less than 10 nM.
`Cc1ccnc2c1[C@H]1CC[C@H](CC1)OC[C@H]1[C@@H](NS(=O)(=O)C3COC3)CCN1C(=O)CO2` (stereo in doubt) [Compound 109] showed an EC50 of less than 10 nM.
`CN(C)CCS(=O)(=O)N[C@H]1CCCN2C(=O)COc3ccccc3[C@H]3CC[C@H](CC3)OC[C@@H]12` (stereo in doubt) [Compound 39] showed an EC50 of less than 10 nM.
In the case of `O=S(=O)(CC1CCC1)N[C@H]1CCCN2CCOc3ccccc3[C@H]3CC[C@H](CC3)OC[C@@H]12` (stereo in doubt) [Compound 55], the EC50 is reported as greater than 1000 nM.
`Cc1ncnc2c1[C@H]1CC[C@H](CC1)OC[C@H]1[C@@H](NS(=O)(=O)C(C)C)CCN1C(=O)CO2` (stereo in doubt) [Compound 86] gave an EC50 of 10 to 1000 nM.
For `Cc1ncnc2c1[C@H]1CC[C@H](CC1)OC[C@H]1[C@@H](NS(=O)(=O)C3CC3)CCN1C(=O)CO2` (stereo in doubt) [Compound 83], the EC50 was 10 to 1000 nM.
With `O=C1COc2ncccc2[C@H]2CC[C@H](CC2)OCC2[C@@H](NS(=O)(=O)C(F)(F)F)CCN12` (stereo in doubt) [Compound 108] the EC50 was less than 10 nM.
`Cc1ccc2c(c1)[C@H]1CC[C@H](CC1)OC[C@H]1[C@@H](NS(=O)(=O)C(C)C)CCCN1C(=O)CO2` (stereo in doubt) [Compound 18] was tested, and the EC50 was less than 10 nM.
`Cc1ccnc2c1[C@H]1CC[C@H](CC1)OC[C@H]1[C@@H](NS(=O)(=O)C3COC3)CCCN1C(=O)CO2` (stereo in doubt) [Compound 88] was tested, and the EC50 was less than 10 nM.
`O=S(=O)(N[C@H]1CCCN2CCOc3ccccc3[C@H]3CC[C@H](CC3)OC[C@@H]12)C1CCC1` (stereo in doubt) [Compound 57] was tested, and the EC50 was 10 to 1000 nM.
`O=C1COc2ccccc2[C@H]2CC[C@H](CC2)OC[C@H]2[C@@H](NS(=O)(=O)CF)CCCN12` (stereo in doubt) [Compound 6] was tested, and the EC50 was less than 10 nM.
For `CC(C)S(=O)(=O)N[C@H]1CCCN2C(=O)COc3nccnc3[C@H]3CC[C@H](CC3)OC[C@@H]12` (stereo in doubt) [Compound 66], the EC50 was less than 10 nM.
Molecule `CCS(=O)(=O)N[C@H]1CCCN2CCOc3ccccc3[C@H]3CC[C@H](CC3)OC[C@@H]12` (stereo in doubt) [Compound 53] has an EC50 greater than 1000 nM.
Molecule `Cc1cccc2c1[C@H]1CC[C@H](CC1)OC[C@H]1[C@@H](NS(C)(=O)=O)CCCN1C(=O)CO2` (stereo in doubt) [Compound 2] has an EC50 of less than 10 nM.
`Cc1ccc2c(c1)[C@H]1CC[C@H](CC1)OC[C@H]1[C@@H](NS(C)(=O)=O)CCCN1C(=O)CO2` (stereo in doubt) [Compound 17] gave an EC50 of less than 10 nM.
Molecule `O=C1COc2ccccc2[C@H]2CC[C@H](CC2)OC[C@H]2[C@@H](NS(=O)(=O)C(F)(F)F)CCCN12` (stereo in doubt) [Compound 11] has an EC50 of less than 10 nM.
Work on `Cc1ncnc2c1[C@H]1CC[C@H](CC1)OC[C@H]1[C@@H](NS(C)(=O)=O)CCN1C(=O)CO2` (stereo in doubt) [Compound 82] yielded an EC50 of 10 to 1000 nM.
In the case of `O=C1COc2ccccc2[C@H]2CC[C@H](CC2)OC[C@H]2[C@@H](NS(=O)(=O)C3CC3)CCN12` (stereo in doubt) [Compound 105], the EC50 is reported as less than 10 nM.
Work on `CC(C)S(=O)(=O)N[C@H]1CCCN2C(=O)COc3ccc(Cl)cc3[C@H]3CC[C@H](CC3)OC[C@@H]12` (stereo in doubt) [Compound 26] yielded an EC50 of less than 10 nM.
`O=C1COc2ccccc2[C@H]2CC[C@H](CC2)OC[C@H]2[C@@H](NS(=O)(=O)CC3CC3)CCCN12` (stereo in doubt) [Compound 48] was tested, and the EC50 was less than 10 nM.
For `Cc1ccnc2c1[C@H]1CC[C@H](CC1)OC[C@H]1[C@@H](NS(=O)(=O)C(C)C)CCN1C(=O)CO2` (stereo in doubt) [Compound 93], the EC50 was less than 10 nM.
Molecule `CC(C)S(=O)(=O)N[C@H]1CCN2C(=O)COc3ncccc3[C@H]3CC[C@H](CC3)OC[C@@H]12` (stereo in doubt) [Compound 101] has an EC50 of less than 10 nM.
Work on `O=C1COc2ncccc2[C@H]2CC[C@H](CC2)OC[C@H]2[C@@H](NS(=O)(=O)C3CC3)CCN12` (stereo in doubt) [Compound 107] yielded an EC50 of less than 10 nM.
`O=C1COc2nccnc2[C@H]2CC[C@H](CC2)OC[C@H]2[C@@H](NS(=O)(=O)C3CC3)CCCN12` (stereo in doubt) [Compound 65] was tested, and the EC50 was less than 10 nM.
Work on `Cc1cccc2c1[C@H]1CC[C@H](CC1)OC[C@H]1[C@@H](NS(=O)(=O)C(C)C)CCCN1C(=O)CO2` (stereo in doubt) [Compound 9] yielded an EC50 of less than 10 nM.
`Cc1cccc2c1[C@H]1CC[C@H](CC1)OC[C@H]1[C@@H](NS(=O)(=O)C(C)C)CCN1C(=O)CO2` (stereo in doubt) [Compound 79] gave an EC50 of less than 10 nM.
`O=S(=O)(N[C@H]1CCCN2CCOc3ncccc3[C@H]3CC[C@H](CC3)OC[C@@H]12)C1CC1` (stereo in doubt) [Compound 63] was tested, and the EC50 was greater than 1000 nM.
